Where two headings read alike, the source gives them in different places.
Assays:
[1] = Pharmacokinetic studies in rat (i.v.); type: in vivo; settings: male, Sprague-Dawley, plasma; for concentration at 0.25 h / concentration at 1 h / concentration at 4 h: intravenous, dose per Dose column (1.32-2.09 mg/kg); for half-life / AUC(0-t): iv, rat plasma, i.v., dose per Dose column; for half-life: estimated from 2 points only
Protocol: Animals: Male Sprague-Dawley rats (˜225-350 g) from Charles River Labs were acclimatized for a minimum of 5 days prior to start of study procedures. Body weights were recorded on the day of dosing.
Any abnormalities were documented including presence/absence of wet dog shakes/back muscle contractions (WDS/BMC).
Dosing: Formulations were administered intravenously (i.v.) via the tail vein using a 25 G needle connected to a 1 cc syringe.
The exemplary compounds of Formula (I) were freshly prepared at the appropriate concentrations in 5% Tween-80 in saline.
Blood collection time (h): 0, […], 1 and 4
Volume/time-point: ˜0.25 mL (saphenous vein)
Instrumentation: AB Sciex QTRAP 4000 or 6500 MS/MS system equipped with an LC system with a binary pump, a solvent degasser, a thermostated column compartment, and a multiplate autosampler.
Analysis software: Phoenix® WinNonlin® 8.3 (Pharsight, Certara, Mountainview, CA).
Analysis methods: non-compartmental analysis, linear up/log down trapezoidal rule.
PK parameters: t1/2 and AUC0-tlast was estimated.
The Compounds of Formula (I) were freshly prepared at the appropriate concentrations in 5% Tween-80 in saline.
Instrumentation: AB Sciex QTRAP 4000 or 6500 MS/MS system equipped with an LC system with a binary pump, a solvent degasser, a thermostated column compartment and a multiplate autosampler.
PK parameters: t1/2 and AUC0-tlast will be estimated.

[2] = Liver microsomes stability, human; type: in vitro ADME; settings: human liver microsomes; for half-life at 2 μM / microsomal CLint at 2 μM: 2 μM compound, 0.5 mg/mL microsomes; for CLint scaled at 2 μM: read-out: Scaled-up CLint
Protocol: (§1) The objective of this study was to estimate in vitro metabolic stability of exemplary compounds of Formula (I) or a pharmaceutically acceptable salt, solvate, and/or prodrug thereof in pooled human, male rat, and male mouse liver microsomes. The concentrations of compounds in reaction systems were evaluated by LC-MS/MS for estimating the stability in pooled human, male rat, and male mouse liver microsomes. The in vitro intrinsic clearances of test compounds were determined as well.
A master solution in the “Incubation Plate” containing phosphate buffer, ultra-pure H2O, MgCl2 solution and liver microsomes was made according to Table 33. The mixture was pre-warmed at 37° C. water bath for 5 minutes.
40 μL of 10 mM nicotinamide adenine dinucleotide phosphate (NADPH) solution was added to each well. The final concentration of NADPH was 1 mM. The negative control samples were prepared by replacing NADPH with 40 μL of ultra-pure H2O. Samples were prepared in duplicate. Negative controls were prepared in singlet.
The reaction was started with the addition of 4 μL of 200 μM exemplary test compounds of the disclosure or control compounds to each master solution to get the final concentration of 2 μM. This study was performed in duplicate.
Aliquots of 50 μL were taken from the reaction solution at 0, 15, 30, 45, and 60 minutes. The reaction solutions were stopped by the addition of 4 volumes of cold methanol with IS (100 nM alprazolam, 200 nM imipramine, 200 nM labetalol, and 2 μM ketoprofen). Samples were centrifuged at 3,220 g for 40 minutes. Aliquot of 90 μL of the supernatant was mixed with 90 μL of ultra-pure H2O and then was used for LC-MS/MS analysis.
LC/MS analysis was performed for all samples from this study using a Shimadzu liquid chromatograph separation system equipped with degasser DGU-20A5R; solvent delivery unit LC-30AD; system controller SIL-30AC; column oven CTO-30A; CTC Analytics HTC PAL System. Mass spectrometric analysis was performed using a Triple Quad™ 5500 instrument.
All calculations were carried out using Microsoft Excel. Peak area ratios of test compound to internal standard (listed in the below table) were determined from extracted ion chromatograms.
All calculations were carried out using Microsoft Excel. Peak areas were determined from extracted ion chromatograms. The slope value, k, was determined by linear regression of the natural logarithm of the remaining percentage of the parent drug vs. incubation time curve.
The in vitro half-life (in vitro t1/2) was determined from the slope value:
Conversion of the in vitro t1/2 (min) into the in vitro intrinsic clearance (in vitro CLint, in μL/min/mg proteins) was done using the following equation (mean of duplicate determinations): […]
as §1, with “solvate” for “solvate,”, “rat” for “rat,”
A master solution in the “Incubation Plate” containing phosphate buffer, ultra-pure H2O, MgCl2 solution and liver microsomes was made according to Table 67. The mixture was pre-warmed at 37° C. water bath for 5 minutes.
40 μL of 10 mM NADPH solution was added to each well. The final concentration of NADPH was 1 mM. The negative control samples were prepared by replacing NADPH with 40 μL of ultra-pure H2O. Samples were prepared in duplicate. Negative controls were prepared in singlet
Aliquots of 50 μL were taken from the reaction solution at 0, 15, 30, 45 and 60 minutes. The reaction solutions were stopped by the addition of 4 volumes of cold methanol with IS (100 nM alprazolam, 200 nM imipramine, 200 nM labetalol and 2 μM ketoprofen).

[3] = first animal (R07/R04/R01/R10), read-out: Plasma concentration
[4] = mean of 3 rats, read-out: Plasma concentration, Mean ± SD
[5] = second animal (R08/R05/R02/R11), read-out: Plasma concentration
[6] = third animal (R09/R06/R03/R12), read-out: Plasma concentration
[7] = first animal (R07/R04/R01/R10), read-out: Apparent t1/2 (converted)
[8] = mean of 3 rats, read-out: Apparent t1/2, Mean ± SD (converted)
[9] = second animal (R08/R05/R02/R11), read-out: Apparent t1/2 (converted)
[10] = third animal (R09/R06/R03/R12), read-out: Apparent t1/2 (converted)
[11] = first animal (R07/R04/R01/R10), read-out: AUC0-tlast
[12] = mean of 3 rats, read-out: AUC0-tlast, Mean ± SD
[13] = second animal (R08/R05/R02/R11), read-out: AUC0-tlast
[14] = third animal (R09/R06/R03/R12), read-out: AUC0-tlast

Row | SMILES | concentration at 0.25 h [1, 3] [ng/mL] | concentration at 0.25 h [1, 4] [ng/mL] | concentration at 0.25 h [1, 5] [ng/mL] | concentration at 0.25 h [1, 6] [ng/mL] | concentration at 1 h [1, 3] [ng/mL] | concentration at 1 h [1, 4] [ng/mL] | concentration at 1 h [1, 5] [ng/mL] | concentration at 1 h [1, 6] [ng/mL] | concentration at 4 h [1, 3] [ng/mL] | concentration at 4 h [1, 4] [ng/mL] | concentration at 4 h [1, 5] [ng/mL] | concentration at 4 h [1, 6] [ng/mL] | half-life [1, 7] [min] | half-life [1, 8] [min] | half-life [1, 9] [min] | half-life [1, 10] [min] | AUC(0-t) [1, 11] [ng·h/mL] | AUC(0-t) [1, 12] [ng·h/mL] | AUC(0-t) [1, 13] [ng·h/mL] | AUC(0-t) [1, 14] [ng·h/mL] | further results
1 | [2H]C([2H])(c1c[nH]c2ccc(OCCCCCN3C(=O)C4CCCCC4C3=O)cc12)[C@H]1CCCN1C([2H])([2H])[2H] (mixture of isomers) [Rac (R) I-248] | 235 | 377 ± 123 | 437 | 459 | 134 | 144 ± 15.9 | 135 | 162 | 27.8 | 18.8 ± 8.29 | 11.5 | 17 | 75 | 56.3 ± 16.1 | 44.8 | 49.4 | 402 | 474 ± 71 | 477 | 544 | Predicted hepatic CL [2]: >19.64 mL/min/kg; half-life at 2 μM [2]: < 4.51 min; microsomal CLint at 2 μM [2]: > 307 µL/min/mg; Remaining Percentage ([2]; With Cofactors, 0 min): 100.00%; Remaining Percentage ([2]; With Cofactors, 30 min): 0.04%; Remaining Percentage ([2]; With Cofactors, 60 min): 0.00%; Remaining Percentage ([2]; Without Cofactors, 0 min): 100.00%; Remaining Percentage ([2]; Without Cofactors, 30 min): 100.47%; Remaining Percentage ([2]; Without Cofactors, 60 min): 98.60%; CLint scaled at 2 μM [2]: > 385 mL/min/kg
2 | COCCN1CCC[C@@H]1Cc1c[nH]c2ccc(OC)cc12 [(R) I-98, (R)-5-Methoxy-3-((1-(2-methoxyethyl)pyrrolidin-2-yl)methyl)-1H-indole] | 411 | 446 ± 34.1 | 479 | 449 | 128 | 113 ± 14.2 | 110 | 100 | 2.48 | 2.32 ± 0.139 | 2.25 | 2.23 | 30.8 | 30.4 ± 0.473 | 29.9 | 30.3 | 403 | 409 ± 15.1 | 426 | 397 | Predicted hepatic CL [2]: 11.72 mL/min/kg; half-life at 2 μM [2]: 64.3 min; microsomal CLint at 2 μM [2]: 21.6 µL/min/mg; Remaining Percentage ([2]; With Cofactors, 30 min): 100.00%; Remaining Percentage ([2]; With Cofactors, 60 min): 67.04%; Remaining Percentage ([2]; Without Cofactors, 30 min): 100.00%; Remaining Percentage ([2]; Without Cofactors, 60 min): 98.21%; CLint scaled at 2 μM [2]: 27 mL/min/kg
3 | [2H]C([2H])(c1c[nH]c2ccc(OCCCCCN3C(=O)c4ccccc4C3=O)cc12)[C@H]1CCCN1C([2H])([2H])[2H] [(R) I-245, (R)-2-(5-((3-((1-(Methyl-d3)pyrrolidin-2-yl)methyl-d2)-1H-indol-5-yl)oxy)pentyl)isoindoline-1,3-dione] | 307 | 178 ± 119 | 154 | 71.8 | 170 | 130 ± 36.6 | 121 | 98.3 | 39.9 | 43.9 ± 4.21 | 43.6 | 48.3 | 79.2 | 126 ± 48.4 | 123 | 176 | 528 | 397 ± 120 | 370 | 293 | Predicted hepatic CL [2]: 18.11 mL/min/kg; half-life at 2 μM [2]: 12 min; microsomal CLint at 2 μM [2]: 115 µL/min/mg; Remaining Percentage ([2]; With Cofactors, 0 min): 100.00%; Remaining Percentage ([2]; With Cofactors, 30 min): 14.62%; Remaining Percentage ([2]; With Cofactors, 60 min): 3.13%; Remaining Percentage ([2]; Without Cofactors, 0 min): 100.00%; Remaining Percentage ([2]; Without Cofactors, 30 min): 101.09%; Remaining Percentage ([2]; Without Cofactors, 60 min): 98.91%; CLint scaled at 2 μM [2]: 145 mL/min/kg

From patent US12606543B2, “Indole derivatives as serotonergic agents useful for the treatment of disorders related thereto” (priority 2023, dated 2026)
